Assay results taken from article PMC6868041, “Evans Blue Inhibits HBV Replication Through a Dual Antiviral Mechanism by Targeting Virus Binding and Capsid Assembly” (Frontiers in Microbiology, 2019).

How the values were obtained:
[1] = target: T1, NTCP (recombinant His-tagged human NTCP; hNTCP) (Homo sapiens, UniProt Q14973); assay: biolayer interferometry (Octet RED); assay type: binding; set-up: gene SLC10A1; full-length from pEnter-hNTCP, His-tag, expressed in and purified from HEK293T, biotinylated for Octet
T1 sequence (Q14973 1-349): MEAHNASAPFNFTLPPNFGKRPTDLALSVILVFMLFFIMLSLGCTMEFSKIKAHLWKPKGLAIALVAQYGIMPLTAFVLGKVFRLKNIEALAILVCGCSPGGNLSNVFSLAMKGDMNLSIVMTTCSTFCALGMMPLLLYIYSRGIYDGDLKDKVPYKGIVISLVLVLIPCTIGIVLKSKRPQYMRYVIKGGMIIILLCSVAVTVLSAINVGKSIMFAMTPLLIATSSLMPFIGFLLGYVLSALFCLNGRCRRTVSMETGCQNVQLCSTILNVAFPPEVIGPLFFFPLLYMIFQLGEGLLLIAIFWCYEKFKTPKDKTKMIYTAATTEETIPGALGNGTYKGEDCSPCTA

[2] = target: T1, NTCP (recombinant His-tagged human NTCP; hNTCP); assay: inhibition of FITC-preS1-myr binding to Huh7D-hNTCP cells, high-content imaging; assay type: cell-based; set-up: gene SLC10A1
From the text: inhibition of FITC-preS1-myr binding to Huh7D-hNTCP cells, high-content imaging on NTCP (recombinant His-tagged human NTCP; hNTCP) | inhibited the binding of FITC-preS1 to cells in a concentration-dependent manner with an IC50

BSA = target: T2, BSA (Bos taurus, UniProt P02769); assay: biolayer interferometry (Octet RED); assay type: binding; settings: negative control protein, biotinylated BSA on sensor; paper states no interaction; unreliable
T2 construct: gene ALB; commercial serum albumin, biotinylated, control protein
T2 sequence (P02769 25-607): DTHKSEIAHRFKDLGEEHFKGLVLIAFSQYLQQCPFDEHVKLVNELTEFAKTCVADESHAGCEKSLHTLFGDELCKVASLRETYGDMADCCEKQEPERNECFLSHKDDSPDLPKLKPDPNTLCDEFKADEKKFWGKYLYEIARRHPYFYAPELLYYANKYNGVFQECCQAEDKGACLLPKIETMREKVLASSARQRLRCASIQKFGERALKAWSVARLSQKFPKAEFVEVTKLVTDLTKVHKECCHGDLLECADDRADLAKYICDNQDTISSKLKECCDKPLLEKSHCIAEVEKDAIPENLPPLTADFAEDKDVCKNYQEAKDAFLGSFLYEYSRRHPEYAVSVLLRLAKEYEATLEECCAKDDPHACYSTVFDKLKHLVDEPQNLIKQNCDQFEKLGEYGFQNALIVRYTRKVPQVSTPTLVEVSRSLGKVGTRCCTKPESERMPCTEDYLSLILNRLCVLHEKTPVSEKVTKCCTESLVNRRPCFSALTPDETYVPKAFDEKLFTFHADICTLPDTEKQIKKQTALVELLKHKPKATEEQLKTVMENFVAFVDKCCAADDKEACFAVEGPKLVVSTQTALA

`Cc1cc(-c2ccc(/N=N/c3ccc4c(S(=O)(=O)O)cc(S(=O)(=O)O)c(N)c4c3O)c(C)c2)ccc1/N=N/c1ccc2c(S(=O)(=O)O)cc(S(=O)(=O)O)c(N)c2c1O` [Evans blue] gave a Kd [1] of 0.0882 µM, an IC50 [2] of ~5 µM and a KD (BSA) of 468 µM.
